Among the data in publication PMC12196348, “^99mTc-Labeled Diarylpyrazoles for Single-Emission Computer Tomography Imaging of Neurotensin Receptor-Positive Tumors: A Comparative Preclinical Study” (Pharmaceutics, 2025) are IC50 and Ki values, retold here.

Several values for one entry are separate records, joined by “and”; a condition that tells them apart may be missing. Equal values may be shown once. Read-outs that look alike come from different tables or passages of the source.

The test system of one assay is HT-29 cells. The conditions noted are these: cited from earlier work.
The target of the next assay is T1, human NTSR2 (Homo sapiens, UniProt O95665).
T1 construct: host or cells: HEK 293T cells, transient transfection
T1 sequence (O95665 whole entry): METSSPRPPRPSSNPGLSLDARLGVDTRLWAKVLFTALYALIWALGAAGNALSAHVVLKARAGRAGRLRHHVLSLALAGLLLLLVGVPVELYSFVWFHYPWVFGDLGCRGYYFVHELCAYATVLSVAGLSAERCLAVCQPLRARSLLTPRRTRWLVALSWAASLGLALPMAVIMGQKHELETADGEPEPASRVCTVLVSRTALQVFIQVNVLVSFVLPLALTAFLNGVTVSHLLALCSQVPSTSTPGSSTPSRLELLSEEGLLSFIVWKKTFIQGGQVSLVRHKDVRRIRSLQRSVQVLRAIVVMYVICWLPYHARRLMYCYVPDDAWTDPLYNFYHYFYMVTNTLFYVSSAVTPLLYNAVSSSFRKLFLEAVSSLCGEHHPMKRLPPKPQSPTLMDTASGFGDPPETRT
Nature of the assay: NTSR2 competition binding, membranes of transiently transfected HEK 293T cells, [3H]NT(8-13). Particulars: human NTSR2, HEK 293T membranes, [3H]NT(8-13) 0.50 nM; mean ± SEM. As for the experimental part:
(§1) Radioligand binding experiments with the NTSR1 and NTSR2 receptor subtypes were performed as described previously. […] NTSR2 binding was measured using homogenates of membranes from HEK 293T cells, which were transiently transfected with DNA encoding the human NTSR2 (cDNA Resource Center, Bloomsberg, PA, USA) using the Mirus TransIT-293 transfection reagent (Peqlab, Erlangen, Germany). […] Nonspecific binding was determined in the presence of 10 μM NT(8-13), protein concentration was determined by the method of Lowry using bovine serum albumin as a standard. A data analysis of the radioligand displacement curves was accomplished by non-linear regression analysis using the algorithms in PRISM 9.0 (GraphPad Software, San Diego, CA, USA). EC50 values derived from the resulting dose response curves were transformed into the corresponding Ki values applying the equation of Cheng and Prusoff.

In the next assay the target is human NTSR1 (Homo sapiens, UniProt P30989). Nature of the assay: NTSR1 competition binding, membranes of CHO cells stably expressing human NTSR1, [3H]neurotensin. The conditions noted are these: [3H]neurotensin 0.50 nM, mean ± SEM ([natRe]2: ± SD, n = 2). How it is done:
as §1

The subject of assay [1] is NTSR1-positive HT-29 cells. Nature of the assay: Competitive cellular uptake assay. In kind it is cell-based. Particulars: Homo sapiens, 37 °C, 1 h. How it is done: For the determination of the IC50 values, 8–10 concentrations of FAUC468 were used. The HT-29 cells were seeded on the day of the experiment in a 96-well-plate (~500.000 cells per well in 200 µL cell medium) and were incubated in a humidified atmosphere at 37 °C containing 5% CO2. Subsequently, the 96-well-plate was centrifuged at 850 rpm for 2 min following aspiration of the cell medium. The cells were washed with cell medium (200 µL), the plate was centrifuged at 850 rpm for 2 min, and the supernatant was aspirated. The incubation solutions (0.009–900 nM FAUC468 in 90 µL cell medium per well) and the respective radiotracer (10 µL, 100 kBq per well) were given to the wells, and the plates were incubated at 37 °C for 1 h. After the incubation time, the plate was centrifuged at 850 rpm for 2 min. The supernatant was removed, followed by two washing steps with the cell medium (200 µL) and PBS (200 µL). Sodium hydroxide solution (200 µL, 2 M, 37 °C) was added, and after 7 min, solutions of the cell homogenates were transferred into tubes, which were measured for radioactivity in a γ-counter (Wallac Wizard, Perkin Elmer, Waltham, MA, USA). […]

Another assay has as its target NTSR2. Also noted: method as in PMID 33268796. The conditions noted are these: cited from earlier work.
A further assay deals with NTSR1. Further details: method as in PMID 33268796. The conditions noted are these: cited from earlier work.

human NTSR1, sequence (P30989 whole entry): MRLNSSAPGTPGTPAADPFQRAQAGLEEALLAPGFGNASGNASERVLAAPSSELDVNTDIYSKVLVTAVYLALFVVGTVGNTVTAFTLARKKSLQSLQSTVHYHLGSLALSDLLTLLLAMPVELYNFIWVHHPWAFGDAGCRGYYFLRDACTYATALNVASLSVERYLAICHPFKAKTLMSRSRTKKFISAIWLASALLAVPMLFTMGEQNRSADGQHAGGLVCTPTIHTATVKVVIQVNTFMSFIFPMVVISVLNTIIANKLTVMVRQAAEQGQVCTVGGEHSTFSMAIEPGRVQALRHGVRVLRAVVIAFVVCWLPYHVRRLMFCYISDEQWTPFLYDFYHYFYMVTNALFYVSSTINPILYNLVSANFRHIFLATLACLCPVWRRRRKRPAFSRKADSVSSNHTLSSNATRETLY

As to `COc1cccc(OC)c1-c1cc(C(=O)NC2(C(=O)O)C3CC4CC(C3)CC2C4)nn1-c1ccnc2cc(Cl)ccc12` (centres unmarked) [SR 48692], in the assay with HT-29 cells ([125I-Tyr3]NT(8-13) as radioligand), the concentration for half-maximal inhibition (IC50) was 30 nM.

Consider `COc1cccc(OC)c1-c1cc(C(=O)NC2(C(=O)O)C3CC4CC(C3)CC2C4)nn1-c1ccc(-c2cn(CCCN(C)CCCNC(=O)CN3CCN(CC(=O)O)CCN(CC(=O)O)CCN(CC(=O)O)CC3)nn2)cc1C(C)C` (centres unmarked) [FAUC468], for which the results for the inhibitory constant (Ki) at human NTSR2 and on human NTSR1 were 100 ± 3 nM and 1.9 ± 0.7 nM, respectively. In addition, the IC50 in assay [1] (radiotracer [99mTc]1, read-out: IC50 of FAUC468 for the displacement of [99mTc]1) was found to be 1.93 nM; in assay [1] (radiotracer [99mTc]2, read-out: IC50 of FAUC468 for the displacement of [99mTc]2) it was 3.12 nM. With “NTS: 13-amino-acid peptide originally isolated from bovine hypothalami”, the Ki on NTSR2 was 5 to 7 nM; on NTSR1 it was 0.15 to 0.5 nM.

With `COc1cccc(OC)c1-c1cc(C(=O)NC2(C(=O)O)C3CC4CC(C3)CC2C4)nn1-c1ccc(-c2cn(CCCN(C)CCCNC(=O)CCn3cc(CC(N)C(=O)O)nn3)nn2)cc1C(C)C` (centres unmarked) [Compound 6, 2-(1-(4-(1-(3-((3-(3-(4-(2-Amino-2-carboxyethyl)-1H-1,2,3-triazol-1-yl)-propanamido)propyl)(methyl)amino)propyl)-1H-1,2,3-triazol-4-yl)-2-isopropylphenyl)-5-(2,6-dimethoxyphenyl)-1H-pyrazole-3-carboxamido)adamantane-2-carboxylic Acid], the inhibition constant (Ki) on human NTSR2 is 85 ± 13 nM; at human NTSR1 it was 0.3 nM and 0.32 nM. On to `COc1cccc(OC)c1-c1cc(C(=O)NC2(C(=O)O)C3CC4CC(C3)CC2C4)nn1-c1ccc(C(=O)N(C)CCCN(C)C)cc1C(C)C` (centres unmarked) [SR 142948A], for which, in the assay on HT-29 cells, the 50% inhibitory concentration (IC50) is 0.32 nM.

In the case of `COc1cccc(OC)c1-c1cc(C(=O)NC2(C(=O)O)C3CC4CC(C3)CC2C4)nn1-c1ccc(-c2cn(CCCN(C)CCCNC(=O)c3ccc(NN)nc3)nn2)cc1C(C)C` (centres unmarked) [Compound 5, 2-(5-(2,6-Dimethoxyphenyl)-1-(4-(1-(3-((3-(6-hydrazineylnicotinamido)propyl)-(methyl)amino)propyl)-1H-1,2,3-triazol-4-yl)-2-isopropylphenyl)-1H-pyrazole-3-carboxamido)-adamantane-2-carboxylic Acid], the Ki at human NTSR2 was 270 ± 94 nM.

In general, IC50 refers to the concentration that gives 50% inhibition. The term Ki denotes the equilibrium dissociation constant of an inhibitor or competing ligand from its target.
